24 compounds from ChEMBL document CHEMBL1201862, “PubChem BioAssay data set” (2004) can be followed below.

Assay [1] addresses T1, Heat shock factor protein 1 (Mus musculus, UniProt P38532).
T1 sequence (P38532 whole entry): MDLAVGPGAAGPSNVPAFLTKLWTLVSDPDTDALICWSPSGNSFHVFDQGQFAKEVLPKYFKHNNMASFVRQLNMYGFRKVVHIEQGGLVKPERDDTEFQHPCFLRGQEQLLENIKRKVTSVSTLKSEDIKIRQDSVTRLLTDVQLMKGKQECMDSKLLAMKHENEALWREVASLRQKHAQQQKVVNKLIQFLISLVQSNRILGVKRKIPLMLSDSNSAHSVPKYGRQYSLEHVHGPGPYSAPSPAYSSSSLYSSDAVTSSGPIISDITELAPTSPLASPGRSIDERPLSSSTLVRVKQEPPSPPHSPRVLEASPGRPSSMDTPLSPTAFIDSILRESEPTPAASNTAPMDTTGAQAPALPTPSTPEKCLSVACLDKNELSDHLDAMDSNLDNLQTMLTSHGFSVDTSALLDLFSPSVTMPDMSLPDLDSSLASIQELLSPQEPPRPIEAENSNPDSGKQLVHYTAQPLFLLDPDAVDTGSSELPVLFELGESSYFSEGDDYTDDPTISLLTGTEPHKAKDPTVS
Briefly: decrease of HSF1-responsive luciferase luminescence – cell-based, NIH3T3, dose retest, confirmation (AID 2382).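 Further: NIH3T3 fibroblasts with HSF1-driven luciferase reporter stressed by proteasome inhibitor MG132; luminescence from HSF1-driven luciferase expression after 8 hours of MG132 stress.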 Format: functional.

Assay [2] deals with T2, Calpain-2 catalytic subunit (Sus scrofa, UniProt P43367).
T2 sequence (P43367 whole entry): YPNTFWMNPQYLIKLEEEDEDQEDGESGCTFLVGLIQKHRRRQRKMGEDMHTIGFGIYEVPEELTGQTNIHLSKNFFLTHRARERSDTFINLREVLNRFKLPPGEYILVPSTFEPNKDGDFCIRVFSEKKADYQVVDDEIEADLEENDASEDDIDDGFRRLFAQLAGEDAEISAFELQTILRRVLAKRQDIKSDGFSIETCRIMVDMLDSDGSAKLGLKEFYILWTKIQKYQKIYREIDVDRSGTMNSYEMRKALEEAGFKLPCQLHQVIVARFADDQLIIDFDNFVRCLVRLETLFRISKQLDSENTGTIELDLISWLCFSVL
As to the kind of experiment: m-calpain protease blockers, concentration series – biochemical, fluorogenic peptide substrate, dose response (AID 1420). The assay is classed as functional.

Assay [3] in a line: Luminescence Cell-Based Dose Retest to Confirm Inhibitors of Cancer Stem Cells. [Related pubchem assays (depositor defined):AID2717, AID2721]. The assay is classed as functional. As to conditions: Homo sapiens.
Assay [4] can be described thus: Luminescence Cell-Based Dose Confirmation HTS to Identify Inhibitors of Platelet Dense Granule Release. [Related pubchem assays: 1663 (Primary HTS), 1678 (Summary of Project)]. Format: functional.
Assay [5] deals with Luciferin 4-monooxygenase (Photinus pyralis, UniProt P08659). Briefly: inhibition of purified Photinus pyralis luciferase – biochemical, luminescence, dose response (AID 1891).
In a further assay the target is T3, Protein skinhead-1 (Caenorhabditis elegans, UniProt P34707).
T3 sequence (P34707 whole entry): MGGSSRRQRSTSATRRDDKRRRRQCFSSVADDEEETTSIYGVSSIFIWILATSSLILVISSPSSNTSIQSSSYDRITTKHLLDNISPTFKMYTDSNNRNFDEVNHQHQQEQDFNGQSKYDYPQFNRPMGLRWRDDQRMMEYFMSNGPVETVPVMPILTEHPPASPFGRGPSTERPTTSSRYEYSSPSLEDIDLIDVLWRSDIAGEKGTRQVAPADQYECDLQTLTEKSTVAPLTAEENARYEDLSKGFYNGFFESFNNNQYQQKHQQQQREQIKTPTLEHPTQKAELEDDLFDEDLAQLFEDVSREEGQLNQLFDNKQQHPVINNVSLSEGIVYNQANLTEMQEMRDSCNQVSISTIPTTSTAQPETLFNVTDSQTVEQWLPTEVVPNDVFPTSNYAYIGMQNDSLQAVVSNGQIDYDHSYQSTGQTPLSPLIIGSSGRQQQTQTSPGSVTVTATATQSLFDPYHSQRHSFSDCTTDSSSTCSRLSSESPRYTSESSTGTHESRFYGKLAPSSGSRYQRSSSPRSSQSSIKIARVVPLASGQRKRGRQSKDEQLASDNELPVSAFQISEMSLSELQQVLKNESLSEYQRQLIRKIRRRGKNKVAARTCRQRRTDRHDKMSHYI
The assay is classed as functional.

Assay [6] has as its target T4, Zinc finger protein mex-5 (Caenorhabditis elegans, UniProt Q9XUB2).
T4 sequence (Q9XUB2 whole entry): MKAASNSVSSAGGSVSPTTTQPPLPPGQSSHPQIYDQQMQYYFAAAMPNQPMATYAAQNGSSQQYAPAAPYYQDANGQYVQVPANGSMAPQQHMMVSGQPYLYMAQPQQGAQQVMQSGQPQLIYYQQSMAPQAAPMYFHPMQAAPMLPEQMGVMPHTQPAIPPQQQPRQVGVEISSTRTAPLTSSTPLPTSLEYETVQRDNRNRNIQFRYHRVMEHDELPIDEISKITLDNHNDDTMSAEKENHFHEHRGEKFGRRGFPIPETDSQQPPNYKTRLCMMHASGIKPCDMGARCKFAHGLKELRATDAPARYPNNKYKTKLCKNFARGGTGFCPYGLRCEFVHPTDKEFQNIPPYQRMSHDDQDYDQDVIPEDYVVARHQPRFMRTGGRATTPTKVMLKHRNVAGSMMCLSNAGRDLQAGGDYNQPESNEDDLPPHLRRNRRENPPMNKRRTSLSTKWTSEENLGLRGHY
Briefly: potency of MEX-5 RNA-binding blockers – biochemical, C. elegans, fluorescence polarization, dose response (AID 1960).

The target in assay [7] is T5, RNA-binding protein pos-1 (Caenorhabditis elegans, UniProt G5EF15).
T5 sequence (G5EF15 whole entry): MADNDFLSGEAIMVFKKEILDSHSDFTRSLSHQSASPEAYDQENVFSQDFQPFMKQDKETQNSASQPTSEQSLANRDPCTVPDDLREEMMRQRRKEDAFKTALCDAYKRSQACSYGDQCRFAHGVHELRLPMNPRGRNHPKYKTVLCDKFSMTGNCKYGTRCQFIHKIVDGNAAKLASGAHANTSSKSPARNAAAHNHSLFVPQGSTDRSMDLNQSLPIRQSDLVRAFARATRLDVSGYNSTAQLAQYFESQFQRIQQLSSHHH
As to the kind of experiment: disruptors of C. elegans POS-1 RNA interaction – biochemical, fluorescence polarization, dose response (AID 1964).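 Further: purified POS-1 fused to maltose binding protein made in E. coli; potency of compounds blocking POS-1 binding to fluorescent RNA.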 Background: Fluorescence polarisation rises when a labelled molecule tumbles more slowly, as on binding a larger partner.

The subject of assay [8] is Streptococcus sp. 'group A'. As to the kind of experiment: Streptococcus pyogenes SK(-)GAS viability under kanamycin – luminescence, BacTiterGlo, confirmation, counter-screen for streptokinase expression inhibitor project, dose response (AID 1900). Format: functional, organism-based.
The next assay deals with T6, Streptokinase A (Streptococcus pyogenes serotype M1, UniProt P10520).
T6 sequence (P10520 whole entry): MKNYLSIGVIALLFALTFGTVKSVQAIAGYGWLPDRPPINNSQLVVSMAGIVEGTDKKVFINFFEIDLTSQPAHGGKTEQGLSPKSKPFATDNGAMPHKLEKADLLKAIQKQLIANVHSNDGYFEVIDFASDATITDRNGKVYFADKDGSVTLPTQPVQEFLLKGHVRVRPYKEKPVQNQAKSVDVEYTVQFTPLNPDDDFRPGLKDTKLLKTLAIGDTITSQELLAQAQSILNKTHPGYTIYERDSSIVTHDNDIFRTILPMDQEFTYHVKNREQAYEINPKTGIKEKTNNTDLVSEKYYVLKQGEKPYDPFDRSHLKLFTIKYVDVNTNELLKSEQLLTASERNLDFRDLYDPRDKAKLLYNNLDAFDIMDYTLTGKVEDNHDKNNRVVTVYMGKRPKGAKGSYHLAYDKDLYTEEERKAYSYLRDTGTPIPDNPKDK
As to the kind of experiment: viability-normalized secreted streptokinase activity reduction – plasminogen activation absorbance, OD405, dose response (AID 1914).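 Further: secreted streptokinase activity via plasminogen activation per viability signal from cell pellet.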 Format: functional, Streptococcus pyogenes M1 GAS.

In another assay the test system is Streptococcus. Briefly: GAS UMAA2166 growth inhibition – luminescence, BacTiterGlo, counter-screen for streptokinase expression inhibitor project, dose response (AID 1915).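 Further: potency for reduction of bacterial viability or growth.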 Format: functional, organism-based. (In general: The purpose of a counterscreen is to sort out artefacts and off-target activity.)
In assay [9] the target is T7, Corticotropin-releasing factor receptor 2/Corticotropin-releasing factor-binding protein (Homo sapiens, UniProt P24387+Q13324).
T7 sequence (Q13324 whole entry): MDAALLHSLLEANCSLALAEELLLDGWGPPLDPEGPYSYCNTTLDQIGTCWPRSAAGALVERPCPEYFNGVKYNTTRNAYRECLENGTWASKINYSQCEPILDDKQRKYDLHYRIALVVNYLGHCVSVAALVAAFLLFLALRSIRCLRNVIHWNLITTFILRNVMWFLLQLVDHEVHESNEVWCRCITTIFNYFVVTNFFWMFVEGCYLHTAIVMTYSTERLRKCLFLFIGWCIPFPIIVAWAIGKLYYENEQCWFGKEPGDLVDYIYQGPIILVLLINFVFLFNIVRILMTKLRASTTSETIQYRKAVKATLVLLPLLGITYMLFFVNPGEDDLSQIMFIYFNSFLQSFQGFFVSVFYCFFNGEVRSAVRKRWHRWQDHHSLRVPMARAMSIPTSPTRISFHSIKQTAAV
T7 sequence (P24387 whole entry): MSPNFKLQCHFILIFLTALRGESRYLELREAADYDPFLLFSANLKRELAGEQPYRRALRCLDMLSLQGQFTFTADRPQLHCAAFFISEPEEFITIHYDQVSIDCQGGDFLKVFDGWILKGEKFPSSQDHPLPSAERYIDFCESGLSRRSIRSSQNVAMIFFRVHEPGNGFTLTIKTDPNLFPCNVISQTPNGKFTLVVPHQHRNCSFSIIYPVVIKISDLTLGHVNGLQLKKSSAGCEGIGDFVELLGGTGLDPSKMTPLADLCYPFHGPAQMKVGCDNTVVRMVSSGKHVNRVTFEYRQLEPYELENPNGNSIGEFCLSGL
Briefly: activators of CRF receptor 2 with binding protein – uHTS hits, confirmation (AID 602473). Format: functional. To be noted: read-out: EC50_Mean.

For orientation: IC50 means the concentration that gives 50% inhibition. In general, AC50 refers to the concentration at which the activity in the assay is half-maximal.

Activity calls are given as the source filed them. For most assays here, no stated cut-off is given here; in the data, actives have a measured EC50 and inactives only a lower limit. Bounds are passed on as bounds.
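Wherever AC50 is given: cells exposed to compound for roughly 70 hours or longer before luminescence read.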

Chain of Luciferin 4-monooxygenase (P08659 whole entry): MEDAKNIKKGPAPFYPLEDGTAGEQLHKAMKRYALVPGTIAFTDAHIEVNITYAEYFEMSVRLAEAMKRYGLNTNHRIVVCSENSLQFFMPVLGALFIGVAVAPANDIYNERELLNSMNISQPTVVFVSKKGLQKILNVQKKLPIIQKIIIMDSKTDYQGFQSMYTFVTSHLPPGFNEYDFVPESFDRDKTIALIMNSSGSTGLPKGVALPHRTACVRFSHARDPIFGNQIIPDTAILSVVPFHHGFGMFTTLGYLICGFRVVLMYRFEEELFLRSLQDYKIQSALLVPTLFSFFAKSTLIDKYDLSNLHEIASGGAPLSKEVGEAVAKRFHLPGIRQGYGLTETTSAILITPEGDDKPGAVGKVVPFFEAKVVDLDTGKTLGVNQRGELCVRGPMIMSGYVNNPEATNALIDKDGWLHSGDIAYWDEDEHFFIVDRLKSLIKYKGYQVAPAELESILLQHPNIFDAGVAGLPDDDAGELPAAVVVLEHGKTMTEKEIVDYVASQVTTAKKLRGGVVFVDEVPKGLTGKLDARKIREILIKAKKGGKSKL

As to `Cc1ccc(-c2nnc(SCC(=O)Nc3nccs3)n2N)cc1`, the EC50 in [1] was > 195 µM (not active).
Regarding `COc1ccc(-n2c(C)c(C(C)=O)c(C(C)=O)c2C)cc1`, the EC50 in assay [1] is > 195 µM (not active).
In the case of `Cc1ccc(-c2nc(NCc3ccco3)c3ccccc3n2)cc1`, the half-maximal inhibitory concentration (IC50) in [2] is 7.69 µM (not active). Besides, the AC50 in assay [3] was 9.72 µM (active).
Consider `COC(=O)C1(Cc2ccccc2)NC(c2ccccc2C)C2C(=O)N(c3ccc4c(c3)OCO4)C(=O)C21` (stereo unspecified), for which the EC50 in [1] is listed as > 195 µM (not active).
The same measure, in the same setting: in the case of `O=C(NCC(=O)N1CCN(c2ccccc2O)CC1)c1ccc(Br)o1` it was > 195 µM (not active).
Turning to `O=C1Nc2ccccc2C1=Nc1ccc(-c2nnc3n2CCCCC3)cc1`, the EC50 in [4] and in assay [5] was > 112 µM (not active) in each case.
As to `O=[N+]([O-])c1ccc(OC/C=C2\Oc3ccc([N+](=O)[O-])cc3C2N2CCOCC2)cc1` (stereo unspecified), the IC50 is > 100 µM (inactive) at Protein skinhead-1 and 6.21 µM (not active) in [2].
On to `Cc1ccc(NC(=O)Cc2ccc(-n3cccc3)cc2)c(C)c1`, for which the EC50 in [1] is > 195 µM (not active).
On to `CCCCOC(=O)CSC1=C(C#N)C(c2ccccc2OCC)C(C#N)C(=O)N1` (stereo unspecified), for which the EC50 is > 300 µM (inconclusive) in assay [6] and > 300 µM (not active) in [7].
Take `CC1(C)c2ccccc2-n2c1cc1oc(=O)cc(O)c1c2=O`: the EC50 (in assay [8]; on Streptokinase A; in the assay with Streptococcus) was > 150 µM (not active) each time. Besides, the IC50 in [2] was 1.02 µM (not active).
Turning to `COC(=O)c1c(C(=O)OC)c2n(c1C)Cc1ccccc1C2`, the EC50 in assay [6] was 43.7 µM (active); in [7], > 300 µM (not active).
Take `Cc1cc(C)c2oc(C(=O)Nc3ccc(S(=O)(=O)Nc4nccc(C)n4)cc3)cc(=O)c2c1`: in assay [1], the EC50 is on record as > 195 µM (not active).
Turning to `Cc1nc2ccc(N3CCN(C)CC3)cc2nc1C`, the EC50 in [6] and in [7] was > 300 µM (not active) throughout.
For `O=C(CN1CCN(C(=O)c2ccccc2)CC1)Nc1ncc(Br)cc1Br`, the EC50 in [1] is recorded as > 195 µM (not active).
On to `Cc1ccc(C(=O)N/C(=C\c2cccc([N+](=O)[O-])c2)C(=O)NCc2ccncc2)cc1`, for which the EC50 in [4] is 38.4 µM (active); in assay [5] it was > 112 µM (not active).
As to `CC(OC(=O)c1nsc(Cl)c1Cl)C(=O)NCc1ccc2c(c1)OCO2` (stereo unspecified), the EC50 in assay [1] is > 195 µM (not active).
As to `CC(=O)NCc1cn2c(C)csc2n1`, the EC50 in [4] and in assay [5] was > 112 µM (not active) each time.
Turning to `CC1(C)CC(=O)C2=C(C1)OC(N)=C(C#N)C2c1ccccc1OC(=O)N1CCOCC1` (stereo unspecified), the EC50 in [6] and in assay [7] was > 300 µM (not active) each time.
In the case of `Cc1cccn2c(=O)c3cc(C(=O)NCC4CCCO4)c(=N)n(CCc4ccccc4)c3nc12` (stereo unspecified), the results for the EC50 in [6] and in assay [7] were 7.9 µM (inconclusive) and 102 µM (active), respectively.
In the case of `COc1cc(Cl)c(C)cc1NC(=O)CNC(C)c1ccccc1OC` (stereo unspecified), the IC50 in [2] was > 50 µM (not active).
`CC(=O)c1cc(NC(=O)c2ccc(Cl)cc2)c(=O)oc1/C=C/N(C)C`: the EC50 in assay [6] is 4.07 µM (active); in assay [9], 5 µM (active); in assay [7], 57.3 µM (active).
For the compound `COc1ccc(N(CC(=O)N/N=C/c2ccc(-c3ccc([N+](=O)[O-])cc3)o2)S(=O)(=O)c2ccc(C)cc2)cc1`, the EC50 in assay [4] and in assay [5] was > 112 µM (not active) in each case.
Take `O=C(Cc1c[nH]c2ccccc12)N/N=C/c1ccccc1O`: the EC50 in assay [4] and in assay [5] was > 112 µM (not active) throughout.
For `COc1ccc(Cn2nnnc2CN2CCc3ccccc3C2)cc1`, the EC50 in [1] is > 195 µM (not active).
